Test results published in the CheMixHub viscosity set.
Values joined by “and” are separate entries in the source; they are usually repeats but may differ in a detail not shown here. Equal entries are not always repeated. ± gives the uncertainty stated by the source.

Legend:
[1] = xn = mol fraction of the nth substance listed

CC(C)(C)O
Details	viscosity
293.15 K, 101 kPa	3.925 ± 1 mPa·s
298 K, 101 kPa	3.41 ± 0.18 mPa·s and 4.324 ± 0.036 mPa·s
298.15 K, 100 kPa	4.396 ± 0.18 mPa·s
303 K, 101.33 kPa	3.268 ± 0.34 mPa·s
303.15 K, 101.3 kPa	3.318 ± 0.038 mPa·s and 3.318 ± 0.04 mPa·s
303.2 K, 101.33 kPa	3.333 ± 0.022 mPa·s and 3.333 ± 0.027 mPa·s
305 K, 101 kPa	3.076 ± 0.019 mPa·s
308 K, 101 kPa	2.333 mPa·s
308.15 K, 101.3 kPa	2.55 ± 0.015 mPa·s
308.15 K, 101.33 kPa	2.644 ± 0.27 mPa·s and 2.595 mPa·s and 2.546 ± 0.022 mPa·s
313 K, 101 kPa	2.102 ± 0.014 mPa·s
313.15 K, 101.3 kPa	2.047 ± 0.047 mPa·s
318 K, 101 kPa	1.702 ± 0.018 mPa·s
318.15 K, 101.33 kPa	1.889 ± 0.19 mPa·s and 1.726 mPa·s
323 K, 101 kPa	1.404 ± 0.0093 mPa·s
323.15 K, 100 kPa	1.418 ± 0.059 mPa·s
323.15 K, 101 kPa	1.421 ± 0.018 mPa·s and 1.423 ± 0.011 mPa·s and 1.415 ± 0.01 mPa·s

CCNCC
Details	viscosity
293.15 K, 100 kPa	0.32 ± 0.03 mPa·s and 0.32 ± 0.01 mPa·s
293.15 K, 101.33 kPa	0.32 ± 0.009 mPa·s
298.15 K, 101 kPa	0.29 ± 0.003 mPa·s and 0.265 ± 0.002 mPa·s
303.15 K, 101.33 kPa	0.288 ± 0.008 mPa·s
308.15 K, 101 kPa	0.2466 ± 0.01 mPa·s
308.15 K, 101.33 kPa	0.274 ± 0.007 mPa·s
313.15 K, 100 kPa	0.26 ± 0.02 mPa·s and 0.26 ± 0.01 mPa·s
318.15 K, 100 kPa	0.248 ± 0.007 mPa·s
323.15 K, 100 kPa	0.237 ± 0.019 mPa·s and 0.237 ± 0.006 mPa·s

C[NH+](CCO)CCO.O=C[O-]
101 kPa
Details	viscosity [mPa·s]
293.15 K	708.5 ± 27
298.15 K	491.4 ± 17
303.15 K	350 ± 11
313.15 K	190 ± 5
323.15 K	124.5 ± 2.9

Nc1ccccc1
Details	viscosity
293.15 K, 100 kPa	4.407 ± 0.2 mPa·s and 4.41 ± 0.35 mPa·s
293.15 K, 101 kPa	4.28 ± 0.05 mPa·s and 4.28 ± 0.04 mPa·s
293.15 K, 101.33 kPa	4.404 ± 0.048 mPa·s
293.35 K, 101 kPa	4.26 ± 0.05 mPa·s
298.15 K, 100 kPa	3.737 ± 0.17 mPa·s
298.15 K, 101.3 kPa	3.61 ± 0.09 mPa·s
298.15 K, 101.32 kPa	3.773 ± 0.0014 mPa·s
298.15 K, 101.33 kPa	3.62 ± 0.036 mPa·s
302.4 K, 101 kPa	5.537 mPa·s
302.75 K, 101 kPa	3.15 ± 0.03 mPa·s
303 K, 101 kPa	3.097 ± 0.079 mPa·s
303 K, 101.3 kPa	3.111 ± 0.082 mPa·s
303 K, 101.33 kPa	3.036 ± 0.31 mPa·s and 3.035 ± 0.31 mPa·s
303.15 K, 100 kPa	3.197 ± 0.14 mPa·s and 3.029 ± 0.035 mPa·s
303.15 K, 101.33 kPa	3.078 ± 0.025 mPa·s
308 K, 101 kPa	2.663 ± 0.068 mPa·s
308 K, 101.3 kPa	2.691 ± 0.071 mPa·s
308.1 K, 101 kPa	2.79 ± 0.063 mPa·s
308.15 K, 100 kPa	2.78 ± 0.12 mPa·s
308.15 K, 101 kPa	2.857 ± 0.29 mPa·s and 2.639 ± 0.028 mPa·s
308.15 K, 101.3 kPa	2.7 ± 0.07 mPa·s
308.15 K, 101.33 kPa	2.615 ± 0.053 mPa·s
313 K, 101 kPa	2.329 ± 0.06 mPa·s
313 K, 101.3 kPa	2.338 ± 0.062 mPa·s
313.15 K, 100 kPa	2.445 ± 0.11 mPa·s and 2.305 ± 0.027 mPa·s and 2.49 ± 0.2 mPa·s
313.15 K, 101.33 kPa	2.327 ± 0.018 mPa·s
318 K, 101 kPa	2.057 ± 0.053 mPa·s
318 K, 101.3 kPa	2.054 ± 0.055 mPa·s
318.15 K, 100 kPa	2.159 ± 0.096 mPa·s
318.15 K, 101 kPa	2.157 ± 0.22 mPa·s and 2.047 ± 0.025 mPa·s and 2.113 ± 0.023 mPa·s
323.15 K, 100 kPa	1.927 ± 0.085 mPa·s
323.15 K, 101 kPa	1.806 ± 0.12 mPa·s
323.15 K, 101.3 kPa	1.87 ± 0.05 mPa·s
323.15 K, 101.33 kPa	2.01 ± 0.02 mPa·s

O=S(=O)([O-])[O-].O=S(=O)([O-])[O-].O=S(=O)([O-])[O-].[Fe+3].[Fe+3] + O
[1], 323.15 K, 101.3 kPa
Details	viscosity [mPa·s]
x1 = 0.0012	0.617 ± 0.049
x1 = 0.0024	0.645 ± 0.051
x1 = 0.00498	0.768 ± 0.074
x1 = 0.00789	0.982 ± 0.11
x1 = 0.0111	1.275 ± 0.13

[Cl-].[NH4+] + O
viscosity [mPa·s], [1]
Details	298.15 K	308.15 K	313.15 K	323.15 K
101.3 kPa, x1 = 0.00112	–	0.7299 ± 0.019	0.6608 ± 0.018	0.556 ± 0.015
101.3 kPa, x1 = 0.002247	–	0.7289 ± 0.019	0.6597 ± 0.018	0.5555 ± 0.015
101.3 kPa, x1 = 0.004484	–	0.7281 ± 0.019	0.659 ± 0.018	0.5551 ± 0.015
101.3 kPa, x1 = 0.008927	–	0.7279 ± 0.019	0.6586 ± 0.018	0.5547 ± 0.015
101.3 kPa, x1 = 0.0177	–	0.7315 ± 0.019	0.661 ± 0.018	0.557 ± 0.015
101.33 kPa, x1 = 0.000905	–	0.7306 ± 0.013	0.6614 ± 0.012	0.5565 ± 0.011
101.33 kPa, x1 = 0.002718	–	0.7295 ± 0.013	0.6608 ± 0.012	0.556 ± 0.011
101.33 kPa, x1 = 0.00453	–	0.7288 ± 0.013	0.6603 ± 0.012	0.5556 ± 0.011
101.33 kPa, x1 = 0.006344	–	0.7285 ± 0.013	0.6598 ± 0.012	0.5544 ± 0.011
101.33 kPa, x1 = 0.008159	–	0.731 ± 0.013	0.662 ± 0.012	0.557 ± 0.011
101.33 kPa, x1 = 0.1165	1.094 ± 0.036	–	–	–

CCNCC + O=C1CCCCC1
[1], 298.15 K, 101 kPa
Details	viscosity [mPa·s]
x2 = 0.076	0.296 ± 0.008
x2 = 0.157	0.338 ± 0.008
x2 = 0.2421	0.415 ± 0.009
x2 = 0.3319	0.502 ± 0.01
x2 = 0.427	0.639 ± 0.012
x2 = 0.5278	0.79 ± 0.013
x2 = 0.6349	0.97 ± 0.014
x2 = 0.7488	1.224 ± 0.016
x2 = 0.8702	1.54 ± 0.017

CCC(O)CO (centres undefined) + O=C1CCCN1
[1], 101.33 kPa
Details	viscosity [mPa·s]
298.15 K, x2 = 0.0555	46.5 ± 0.97
298.15 K, x2 = 0.09272	42.92 ± 0.89
298.15 K, x2 = 0.2043	34.62 ± 0.72
298.15 K, x2 = 0.2943	29.84 ± 0.63
298.15 K, x2 = 0.4023	25.54 ± 0.55
298.15 K, x2 = 0.508	22.41 ± 0.48
298.15 K, x2 = 0.6045	20.25 ± 0.43
298.15 K, x2 = 0.6902	18.59 ± 0.39
298.15 K, x2 = 0.7968	16.74 ± 0.35
298.15 K, x2 = 0.8891	15.2 ± 0.32
298.15 K, x2 = 0.9416	14.65 ± 0.31
308.15 K, x2 = 0.04722	26.34 ± 0.54
308.15 K, x2 = 0.1008	23.83 ± 0.49
308.15 K, x2 = 0.2171	19.71 ± 0.41
308.15 K, x2 = 0.2992	17.63 ± 0.37
308.15 K, x2 = 0.6065	12.84 ± 0.27
308.15 K, x2 = 0.6909	11.99 ± 0.25
308.15 K, x2 = 0.8019	10.94 ± 0.23
308.15 K, x2 = 0.886	10.18 ± 0.21
308.15 K, x2 = 0.9402	9.675 ± 0.2
318.15 K, x2 = 0.04672	15.75 ± 0.32
318.15 K, x2 = 0.07619	15.07 ± 0.31
318.15 K, x2 = 0.2048	12.57 ± 0.26
318.15 K, x2 = 0.289	11.39 ± 0.24
318.15 K, x2 = 0.4043	10.2 ± 0.22
318.15 K, x2 = 0.4992	9.411 ± 0.2
318.15 K, x2 = 0.6031	8.699 ± 0.18
318.15 K, x2 = 0.6923	8.26 ± 0.17
318.15 K, x2 = 0.7988	7.666 ± 0.16
318.15 K, x2 = 0.8817	7.237 ± 0.15
318.15 K, x2 = 0.9477	6.892 ± 0.14

COCCOCCOCCO + O=C1CCCN1
[1], 298.15 K, 101 kPa
Details	viscosity [mPa·s]
x1 = 0.0024	14.16 ± 0.3
x1 = 0.0071	13.98 ± 0.29
x1 = 0.0099	13.92 ± 0.29
x1 = 0.0137	13.86 ± 0.29
x1 = 0.026	13.66 ± 0.29
x1 = 0.0397	13.43 ± 0.28
x1 = 0.0605	13.11 ± 0.28
x1 = 0.085	12.74 ± 0.27
x1 = 0.1404	12.01 ± 0.26
x1 = 0.1689	11.65 ± 0.25
x1 = 0.2026	11.29 ± 0.24
x1 = 0.24	10.92 ± 0.24
x1 = 0.2913	10.46 ± 0.23
x1 = 0.3429	10.04 ± 0.22
x1 = 0.3916	9.679 ± 0.22
x1 = 0.4401	9.334 ± 0.21
x1 = 0.4897	9.091 ± 0.21
x1 = 0.5674	8.598 ± 0.2
x1 = 0.6133	8.347 ± 0.2
x1 = 0.6641	8.188 ± 0.19
x1 = 0.7172	7.889 ± 0.19
x1 = 0.7708	7.642 ± 0.18
x1 = 0.8177	7.419 ± 0.18
x1 = 0.8659	7.145 ± 0.18
x1 = 0.9053	6.89 ± 0.17
x1 = 0.9402	6.677 ± 0.17
x1 = 0.9788	6.466 ± 0.16
x2 = 0.009	6.323 ± 0.16

Nc1ccccc1 + O=[N+]([O-])c1ccccc1
[1], 298.15 K, 101 kPa
Details	viscosity [mPa·s]
x2 = 0.1216	3.163 ± 0.084
x2 = 0.2269	2.741 ± 0.073
x2 = 0.4	2.328 ± 0.062
x2 = 0.5602	2.082 ± 0.055
x2 = 0.6878	1.949 ± 0.051
x2 = 0.8353	1.889 ± 0.05
x2 = 0.9171	1.836 ± 0.048

CC(C)(C)O + OCC(O)CO
viscosity [mPa·s], [1], 101.33 kPa
Details	x2 = 0.1029	x2 = 0.1996	x2 = 0.3009	x2 = 0.4015	x2 = 0.5001	x2 = 0.5995	x2 = 0.6993	x2 = 0.7992	x2 = 0.8995
308.15 K	5.962 ± 0.62	10.24 ± 1.1	19.34 ± 2	36.09 ± 3.7	65.66 ± 6.7	105.9 ± 11	154.9 ± 16	211.7 ± 22	276 ± 29
318.15 K	4.1 ± 0.42	6.761 ± 0.7	12.32 ± 1.3	21.85 ± 2.2	37.6 ± 3.8	58.03 ± 5.9	83.42 ± 8.4	108.5 ± 11	132.4 ± 13
